# In PMC5289470, “The biodistribution of 5-[^18F]fluoropyrazinamide in Mycobacterium tuberculosis-infected mice determined by positron emission tomography” (PLoS ONE, 2017):
# Entries after “also recorded” stand apart in the source; their conditions may differ. Where two headings read alike, the source gives them in different places.
# What was measured:
# M. tuberculosis = test system: M. tuberculosis; design: method as in PMID 23287128; settings: ref [31]; cited from earlier work
# M. tuberculosis H37Rv = test: MIC by agar dilution method; format: cell-based; settings: Mycobacterium tuberculosis, acidic agar pH 5.5 to 6, 30 days
# [1] = format: in vitro ADME, mouse
# Protocol: Test compounds were weighed and dissolved in dimethyl sulfoxide (DMSO) to give 10 mM stock solutions. The stock solutions were diluted to 500 μM with a mixture of methanol and H2O (1:1), and the final concentrations of DMSO and methanol were equal to, or less than, 0.1%. Liver microsome incubations were conducted in duplicate in 96—well plates. Each well contained 40 μL of 0.1 M potassium phosphate buffer (pH 7.4), 2.5 mM MgCl2, 0.625 mg/mL mouse liver microsomes, and test compound (1.25 μM) or positive control. After a 5 min pre-incubation at 37°C, 10 μL of 5.0 mM NADPH in 0.1 M potassium phosphate buffer was added to initiate the enzymatic reaction. The final concentrations were 0.1M potassium phosphate (pH 7.4), 1.0 mM NADPH, 2.0 mM MgCl2, 0.5 mg/mL mouse liver microsomes, and test compound (1.0 μM) or positive control (1.0 μM). Reactions were terminated at various time points (0, 5, 10, 20, 40 min) by adding 100 μL of ice-cold acetonitrile containing internal standard. A parallel incubation was performed using 0.1 M potassium phosphate (pH 7.4) instead of NADPH as the negative control, and the reaction was terminated 40 min after incubation at 37°C. Compound quantitation was performed on a Shimadzu liquid chromatographic system coupled with an API4000 mass spectrometer equipped with TurboIonSpray (ESI) Interface (Applied Biosystems).
# M. tuberculosis (H37Rv) = test: In vitro accumulation assay, M. tuberculosis; format: cell-based; settings: 120 min of incubation
# [2] = test system: Staphylococcus aureus (ATCC 29213); test: In vitro accumulation assay, S. aureus; format: cell-based; settings: 120 min of incubation
# [3] = test system: Escherichia coli (ATCC 25922); test: In vitro accumulation assay, E. coli; format: cell-based; settings: 120 min of incubation
# [4] = test system: Pseudomonas aeruginosa (ATCC 10145); test: In vitro accumulation assay, P. aeruginosa; format: cell-based; settings: 120 min of incubation
# [5] = test system: J774A.1 murine macrophage cells; test: Uptake assay in macrophage cells; format: cell-based; settings: 120 min of incubation
# [6] = mouse, 740 kBq/mL
# [7] = test system: heat-killed control cultures; test: Accumulation assay in heat-killed bacteria (negative control); settings: heat-killed 90°C for 30 min
# [8] = PET/CT imaging and ex vivo biodistribution in M. tuberculosis-infected and uninfected mice
# [9] = M. tuberculosis H37Rv, read-out: MIC
compound,measurement,setting,value
"NC(=O)c1cnc(Cl)cn1 [5-Cl-PZA, 5-Chloropyrazinamide]",activity in M. tuberculosis-infected mice,M. tuberculosis,lack of activity
"NC(=O)c1cnccn1 [PZA, pyrazinamide]",MIC,M. tuberculosis H37Rv; [9],20 µg/mL
"NC(=O)c1cnc(F)cn1 [5-F-PZA, 5-Fluoropyrazinamide]",MIC,"M. tuberculosis H37Rv; H37RV, read-out: concentration up to which bacterial growth was not inhibited (MIC)",> 2000 µg/mL
same,MIC,M. tuberculosis H37Rv; [9],> 2000 µg/mL
same,fraction of initial concentration metabolized,"[1]; CD-1, mouse, microsomes, 40 min, 1 μM, pH 7.4",approximately 20%
same,stability in the presence of liver microsomes,[1]; mouse,not stable
"NC(=O)c1cnc([18F])cn1 [5-[^18F]F-PZA, 5-[^18F]F-pyrazinamide]",In vitro accumulation in M. tuberculosis,M. tuberculosis (H37Rv),0.094%
same,In vitro accumulation in S. aureus,[2],0.123±0.014
same,In vitro accumulation in E. coli,[3],0.055±0.005
same,In vitro accumulation in P. aeruginosa,[4],0.043±0.026
same,Accumulation in J774A.1 murine macrophage cells,[5],0.057±0.019
same,incubation time after which defluorination could be detected,[6],2 min
same,percent of total activity defluorinated,[6]; 30 min,~ 25%
same,percent defluorination,[6]; 60 min,~ 40%
same,Uptake in heat-killed control cultures,[7],no uptake
same,bone activity,"[8]; PET 10 min and 30 min post-injection, post-mortem analysis",significant activity in the bones
same,distribution to organs after intravenous administration,[8]; PET imaging,rapidly distributed to various organs
same,elimination from organs,[8]; PET imaging,rapidly eliminated from all major organs
same,"ex vivo activity in lung (and spleen), infected vs uninfected",[8]; direct γ counting after PET imaging,higher activity in uninfected lung tissue compared to infected lungs; also recorded: higher activity in uninfected lung and spleen tissues
same,"PET concentration (%ID/cc) in blood, liver, bone and lungs, infected vs uninfected mice","[8]; intravenous, throughout 60 min post-injection",not significantly different; also recorded: No significant difference
